# How the values were obtained:
# [1] = In vitro cytotoxicity assay (MTT cell viability) in HepG2 cells; assay type: cell-based, human; details: human
# Summary of the method: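 Read-out: MTT formazan absorbance at 492 nm, expressed as % of vehicle signal; CC50 by 4-parameter non-linear regression. Parental HepG2, 20,000 cells/well, treated 7 days with compound from 30 μM down to 1.0 nM.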
# [2] = test system: HBV replication in HepAD38 cells; assay: Anti-HBV replication assay in HepAD38 cells (QPCR of extracellular HBV DNA); assay type: cell-based, HBV (genotype D, serotype ayw); details: Hepatitis B virus, 168 h, 7 days incubation, extracellular HBV DNA by QPCR, read-out: Anti-HBV EC50
# Summary of the method: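 HepAD38 cells (HepG2 carrying a tet-repressible HBV genotype D genome) were seeded in tetracycline-free medium and treated next day with compound […] for 7 days. Supernatant HBV DNA was measured by QPCR against a standard curve; EC50 came from 4-parameter fits of inhibition versus DMSO control.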
Structure (SMILES),CC50 at 7 days [1] [µM],EC50 [2] [µM]
"Cc1cc(NC(=O)c2c(C)c(C(=O)C(=O)NCCN3CCSCC3)n(C)c2C)ccc1F [Example 328, N-(4-fluoro-3-methylphenyl)-1,2,4-trimethyl-5-(2-oxo-2-((2-thiomorpholinoethyl)amino)acetyl)-1H-pyrrole-3-carboxamide]",> 30,0.05 to 0.499
"Cc1cc(NC(=O)c2c(C)c(C(=O)C(=O)NC(C)(C)c3nc(CN(C)C)no3)n(CCF)c2C)ccc1F [Example 202, 5-(2-((2-(3-((dimethylamino)methyl)-1,2,4-oxadiazol-5-yl)propan-2-yl)amino)-2-oxoacetyl)-N-(4-fluoro-3-methylphenyl)-1-(2-fluoroethyl)-2,4-dimethyl-1H-pyrrole-3-carboxamide]",> 30,0.05 to 0.499
"Cc1cc(NC(=O)c2c(C)c(C(=O)C(=O)N[C@H]3COC[C@@H]3O)n3c2CCCC3)ccc1F [Example 439, N-(4-fluoro-3-methylphenyl)-3-(2-(((3S,4R)-4-hydroxytetrahydrofuran-3-yl)amino)-2-oxoacetyl)-2-methyl-5,6,7,8-tetrahydroindolizine-1-carboxamide]",> 30,0.05 to 0.499
"Cc1c(C(=O)Nc2cc(F)c(F)c(F)c2)c(C)n(C)c1C(=O)C(=O)NC1CCC(F)(F)CC1 [Example 324, 5-(2-((4,4-difluorocyclohexyl)amino)-2-oxoacetyl)-1,2,4-trimethyl-N-(3,4,5-trifluorophenyl)-1H-pyrrole-3-carboxamide]",5 to 30,< 0.05
"Cc1cc(NC(=O)c2c(C)c(C(=O)C(=O)NC3(C)CCN(c4cnccn4)CC3)n(C)c2C)ccc1F [Example 715, N-(4-fluoro-3-methylphenyl)-1,2,4-trimethyl-5-(2-((4-methyl-1-(pyrazin-2-yl)piperidin-4-yl)amino)-2-oxoacetyl)-1H-pyrrole-3-carboxamide]",5 to 30,< 0.05
"Cc1cc(NC(=O)c2c(C)c(C(=O)C(=O)NCCc3nnc[nH]3)n(C)c2C)ccc1F [Example 348, 5-(2-((2-(4H-1,2,4-triazol-3-yl)ethyl)amino)-2-oxoacetyl)-N-(4-fluoro-3-methylphenyl)-1,2,4-trimethyl-1H-pyrrole-3-carboxamide]",> 30,< 0.05
"Cc1cc(NC(=O)c2c(C)c(C(=O)C(=O)NC3(CN4CCN(c5ccc(Cl)cc5)CC4)CC3)n(C)c2C)ccc1F [Example 661, 5-(2-((1-((4-(4-chlorophenyl)piperazin-1-yl)methyl)cyclopropyl)amino)-2-oxoacetyl)-N-(4-fluoro-3-methylphenyl)-1,2,4-trimethyl-1H-pyrrole-3-carboxamide]",5 to 30,< 0.05
"Cc1noc([C@@H](C)NC(=O)C(=O)c2c(Cl)c(C(=O)Nc3ccc(F)c(F)c3)c3n2CCC3)n1 [Example 567, (R)-6-chloro-N-(3,4-difluorophenyl)-5-(2-((1-(3-methyl-1,2,4-oxadiazol-5-yl)ethyl)amino)-2-oxoacetyl)-2,3-dihydro-1H-pyrrolizine-7-carboxamide]",> 30,< 0.05
"CC(C)(CO)CNC(=O)C(=O)c1c(Cl)c(C(=O)Nc2ccc(F)c(Cl)c2)c2n1CCC2 [Example 556, 6-chloro-N-(3-chloro-4-fluorophenyl)-5-(2-((3-hydroxy-2,2-dimethylpropyl)amino)-2-oxoacetyl)-2,3-dihydro-1H-pyrrolizine-7-carboxamide]",5 to 30,0.05 to 0.499
"Cc1cc(NC(=O)c2c(Cl)c(C(=O)C(=O)NC3(CO)CC3)n3c2CCC3)ccc1F [Example 542, 6-chloro-N-(4-fluoro-3-methylphenyl)-5-(2-((1-(hydroxymethyl)cyclopropyl)amino)-2-oxoacetyl)-2,3-dihydro-1H-pyrrolizine-7-carboxamide]",> 30,< 0.05
"Cc1cc(NC(=O)c2c(C)c(C(=O)C(=O)Nc3ccc(C(F)(F)F)nc3)n(C)c2C)ccc1F [Example 264, N-(4-fluoro-3-methylphenyl)-1,2,4-trimethyl-5-(2-oxo-2-((6-(trifluoromethyl)pyridin-3-yl)amino)acetyl)-1H-pyrrole-3-carboxamide]",5 to 30,< 0.05
"Cc1cc(NC(=O)c2c(C)c(C(=O)C(=O)NC[C@@H](C)O)n(C)c2C)ccc1F [Example 220, (R)-N-(4-ffluoro-3-methylphenyl)-5-(2-((2-hydroxypropyl)amino)-2-oxoacetyl)-1,2,4-trimethyl-1H-pyrrole-3-carboxamide]",5 to 30,< 0.05
"Cc1c(C(=O)Nc2ccnc(F)c2)c(C)n(C)c1C(=O)C(=O)N[C@@H](C)C(F)(F)F [Example 274, (S)-N-(2-fluoropyridin-4-yl)-1,2,4-trimethyl-5-(2-oxo-2-((1,1,1-trifluoropropan-2-yl)amino)acetyl)-1H-pyrrole-3-carboxamide]",> 30,< 0.05
"Cc1cc(NC(=O)c2c(C)c(C(=O)C(=O)NC3(C)CCN(C(=O)c4cn[nH]c4)CC3)n(C)c2C)ccc1F [Example 709, N-(4-fluoro-3-methylphenyl)-1,2,4-trimethyl-5-(2-((4-methyl-1-(1H-pyrazole-4-carbonyl)piperidin-4-yl)amino)-2-oxoacetyl)-1H-pyrrole-3-carboxamide]",> 30,< 0.05
"Cc1cc(NC(=O)c2c(C)c(C(=O)C(=O)N[C@H]3C[C@@H](NS(C)(=O)=O)C3)n(C)c2C)ccc1F [Example 669, N-(4-fluoro-3-methylphenyl)-1,2,4-trimethyl-5-(2-(((1s,3s)-3-(methylsulfonamido)cyclobutyl)amino)-2-oxoacetyl)-1H-pyrrole-3-carboxamide]",> 30,< 0.05
"Cc1cc(NC(=O)c2c(Cl)c(C(=O)C(=O)N[C@@H]3CCC[C@@H]3O)n(C)c2C)ccc1F [Example 367, 4-chloro-N-(4-fluoro-3-methylphenyl)-5-(2-(((1R,2S)-2-hydroxycyclopentyl)aminO)-2-oxoacetyl)-1,2-dimethyl-1H-pyrrole-3-carboxamide]",5 to 30,< 0.05
"COCC(C)(C)NC(=O)C(=O)c1c(C)c(C(=O)Nc2ccc(F)c(C)c2)c(C)n1CCF [Example 241, N-(4-fluoro-3-methylphenyl)-1-(2-fluoroethyl)-5-(2-((1-methoxy-2-methylpropan-2-yl)amino)-2-oxoacetyl)-2,4-dimethyl-1H-pyrrole-3-carboxamide]",> 30,< 0.05
"Cc1cc(NC(=O)c2c(C)c(C(=O)C(=O)N[C@@H](C(=O)O)C3CCCCC3)n(C)c2C)ccc1F [Example 69, (R)-2-cyclohexyl-2-(2-(4-((4-fluoro-3-methylphenyl)carbamoyl)-1,3,5-trimethyl-1H-pyrrol-2-yl)-2-oxoacetamido)acetic acid]",> 30,0.5 to 1
"Cc1cc(NC(=O)c2c(C)c(C(=O)C(=O)NC3CCCCC3)n(C)c2C)ccc1F [Example 262, 5-(2-(cyclohexylamino)-2-oxoacetyl)-N-(4-fluoro-3-methylphenyl)-1,2,4-trimethyl-1H-pyrrole-3-carboxamide]",5 to 30,< 0.05
"Cc1cc(NC(=O)c2c(C)c(C(=O)C(=O)N[C@H]3CC[C@@H](O)CC3)n(C)c2C)cc(Cl)n1 [Example 628, N-(2-chloro-6-methylpyridin-4-yl)-5-(2-(((1s,4s)-4-hydroxycyclohexyl)amino)-2-oxoacetyl)-1,2,4-trimethyl-1H-pyrrole-3-carboxamide]",> 30,< 0.05
"O=C(N[C@H]1COC[C@@H]1O)C(=O)c1c(Cl)c(C(=O)Nc2ccc(F)c(F)c2)c2n1CCC2 [Example 570, 6-chloro-N-(3,4-difluorophenyl)-5-(22-(((3S,4R)-4-hydroxytetrahydrofuran-3-yl)amino)-2-oxoacetyl)-2,3-dihydro-1H-pyrrolizine-7-carboxamide]",> 30,< 0.05
Cc1cc(NC(=O)c2c(C)c(C(=O)C(=O)N[C@@H]3CCCN(S(C)(=O)=O)C3)n(C)c2C)ccc1F [Example 640],5 to 30,< 0.05
"CNC(=O)[C@H](NC(=O)C(=O)c1c(C)c(C(=O)Nc2ccc(F)c(C)c2)c(C)n1C)C(C)(C)C [Example 60, (R)-5-(2-((3,3-dimethyl-1-(methylamino)-1-oxobutan-2-yl)amino)-2-oxoacetyl)-N-(4-fluoro-3-methylphenyl)-1,2,4-trimethyl-1H-pyrrole-3-carboxamide]",> 30,< 0.05
"Cc1cc(NC(=O)c2c(C)c(C(=O)C(=O)NC3CCCN(C)CC3)n(C)c2C)ccc1F (stereo not shown) [Example 353, N-(44-fluoro-3-methylphenyl)-1,2,4-trimethyl-5-(2-((1-methylazepan-4-yl)amino)-2-oxoacetyl)-1H-pyrrole-3-carboxamide]",> 30,0.05 to 0.499
"Cc1cc(NC(=O)c2c(C)c(C(=O)C(=O)NC3(c4nc(-c5cnccn5)no4)CCCCC3)n(C)c2C)ccc1F [Example 631, N-(4-fluoro-3-methylphenyl)-1,2,4-trimethyl-5-(2-oxo-2-((1-(3-(pyrazin-2-yl)-1,2,4-oxadiazol-5-yl)cyclohexyl)amino)acetyl)-1H-pyrrole-3-carboxamide]",> 30,< 0.05
"Cc1cc(NC(=O)c2cc(C(=O)C(=O)NC(C)(C)C)n3c2COCC3)ccc1F [Example 583, 6-(2-(tert-butylamino)-2-oxoacetyl)-N-(4-fluoro-3-methylphenyl)-3,4-dihydro-1H-pyrrolo[2,1-c][1,4]oxazine-8-carboxamide]",> 30,< 0.05

# Reference: patent US20190375708A1 (VenatoRx Pharmaceuticals, Inc., priority 2018, published 2019)
